Reference: patent US8912200B2, “Alkynyl substituted pyrimidinyl-pyrroles active as kinases inhibitors” (Nerviano Medical Sciences S.R.L., priority 2011, dated 2014)

Assays:
JAK2 kinase domain = molecular target: T1, JAK2 kinase domain (Homo sapiens, UniProt O60674); test: Biochemical assay for inhibitors of JAK kinase activity (JAK2, 33P-γ-ATP/dowex resin); settings: JAK2 kinase domain 1 nM, 60 μM ATP
T1 construct: commercially available JAK2 kinase domain; purchased Invitrogen, Eugene, Oreg
In short: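 Human JAK2 (1 nM) phosphorylated peptide BioDBn*306 (64 μM) with 60 μM ATP plus 3 nM 33P-γ-ATP in HEPES pH 7.5/MgCl2/DTT buffer, 60 min at room temperature. Unreacted ATP captured by Dowex resin; supernatant β-counted. IC50 from sigmoidal fit of ten-point 1:3 dilution curves.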

Lyn full length = molecular target: T2, Lyn full length (Homo sapiens, UniProt P07948); test: Biochemical assay for inhibitors of Lyn (Src family) kinase activity; settings: Lyn full length 1 nM, 25 μM ATP
T2 construct: The assay has been performed using Lyn full length
Source text: Biochemical Assay for Inhibitors of Lck and Lyn (Src Family) Kinases Activity
Specific Lck and Lyn substrates are trans-phosphorylated by Lck and Lyn kinases in the presence of ATP traced with 33P-γ-ATP. At the end of the phosphorylation reaction, the unreacted ATP, cold and radioactive, is captured by an excess of dowex ion exchange resin that eventually settles by gravity to the bottom of the reaction plate. The supernatant is subsequently withdrawn and transferred into a counting plate that is then evaluated by β-counting.
Lyn Specific Assay Conditions
The assay has been performed using Lyn full length (accession number P07948 of UniProtKB/Swiss-Prot database).
Kinase buffer was composed of 50 mM HEPES pH 7.5 containing 3 mM MgCl2, 1 mM DTT, 3 μM Na3VO4, and 0.2 mg/mL BSA.
The Lyn kinase assay was run with a final enzyme concentration of 1 nM, in the presence of 25 μM ATP, 1.5 nM 33P-γ-ATP and 250 μM of substrate ABI 1 (Aminoacid sequence: EAIYAAPFAKKK—SEQ ID NO: 3). The peptidic substrate was purchased from American Peptide Company (Sunnyvale, Calif.).
For IC50 determination, test compounds are received as a 1 mM solution in 100% DMSO, distributed into 96 well plates: compounds are then plated into the first column of a microtiter plate (A1 to G1), 100 μL/well.
An automated station for serial dilutions (Biomek FX, Beckman) is used for producing 1:3 dilutions in 100% DMSO, from line A1 to A10, and for all the compounds in the column. Moreover, 4-5 copies of daughter plates are prepared by reformatting 5 μL of this first set of 100% DMSO dilution plates into 384 deep well-plates: one of these plates with the serial dilutions of test compounds will be thawed the day of the experiments, reconstituted at a 3× concentration with water and used in the IC50 determination assays. In a standard experiment, the highest concentration (3×) of all compounds is 30 μM, while the lowest one is 1.5 nM. Each 384 well-plate will contain at least one curve of the standard inhibitor staurosporine and reference wells (total enzyme activity vs. no enzymatic activity) for the Z′ and signal to background evaluation.
384-well plates, V bottom (test plates) are prepared with 5 μL of the compound dilution (3×) and then placed onto a PlateTrak 12 robotized station (Perkin Elmer; the robot has one 384-tip pipetting head for starting the assay plus one 96-tip head for dispensing the resin) together with one reservoir for the Enzyme mix (3×) and one for the ATP mix (3×). At the start of the run, the robot aspirates 5 μL of ATP mix, makes an air gap inside the tips (3 μl) and aspirates 5 μL of JAK2 mix. The following dispensation into the plates plus 3 cycles of mixing, done by the robot itself, starts the kinase reaction. At this point, the correct concentrations are restored for all the reagents. The robot incubates the plates for 60 minutes at room temperature, and then stops the reaction by pipetting 60 μL of dowex resin suspension into the reaction mix. In order to avoid tip clogging, wide bore tips are used to dispense the resin suspension. Three cycles of mixing are done immediately after the addition of the resin. Another mixing cycle is performed after all the plates are stopped, this time using normal tips: the plates are then allowed to rest for about one hour in order to allow resin sedimentation. At this point, 27 μL of the supernatant are transferred into 384-Optiplates (Perkin-Elmer), with 50 μL of Microscint 40 (Perkin-Elmer); after 5 min of orbital shaking the plates are read on a Perkin-Elmer Top Count radioactivity counter.
Data are analyzed by an internally customized version of the SW package “Assay Explorer” that provides sigmoidal fitting of the ten-dilutions curves for IC50 determination in the secondary assays/hit confirmation routines.

[1] = tested on: JAK2 dependent human megakaryoblastic leukemia cell line SET-2; test: Cell proliferation assay (CellTiter-Glo, 72 hours); assay type: cell-based; settings: Homo sapiens, SET-2 cells
In short: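 About 5×10^3 SET-2 cells per well, in RPMI-1640 with 10% FBS, were exposed to inhibitor dilutions for 72 hours at 37 °C, 5% CO2. Viability read by CellTiter-Glo luminescence. IC50 from sigmoidal fitting of 8-point dilution curves.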

T2 sequence (P07948 whole entry): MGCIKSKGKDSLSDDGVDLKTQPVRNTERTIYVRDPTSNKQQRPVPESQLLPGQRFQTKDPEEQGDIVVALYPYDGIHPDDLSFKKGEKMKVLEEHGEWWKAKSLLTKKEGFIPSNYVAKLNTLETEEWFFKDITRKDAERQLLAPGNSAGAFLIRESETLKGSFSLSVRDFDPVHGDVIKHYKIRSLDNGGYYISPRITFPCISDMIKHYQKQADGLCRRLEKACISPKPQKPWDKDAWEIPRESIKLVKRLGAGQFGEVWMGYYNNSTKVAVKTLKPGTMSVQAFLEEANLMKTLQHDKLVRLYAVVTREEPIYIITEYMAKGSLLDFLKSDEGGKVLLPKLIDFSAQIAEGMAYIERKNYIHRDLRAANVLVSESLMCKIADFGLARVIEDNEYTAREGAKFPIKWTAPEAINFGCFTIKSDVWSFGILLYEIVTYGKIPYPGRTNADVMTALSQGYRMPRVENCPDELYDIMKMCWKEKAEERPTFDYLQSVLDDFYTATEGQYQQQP
T1 sequence (O60674 849-1124 limits assumed): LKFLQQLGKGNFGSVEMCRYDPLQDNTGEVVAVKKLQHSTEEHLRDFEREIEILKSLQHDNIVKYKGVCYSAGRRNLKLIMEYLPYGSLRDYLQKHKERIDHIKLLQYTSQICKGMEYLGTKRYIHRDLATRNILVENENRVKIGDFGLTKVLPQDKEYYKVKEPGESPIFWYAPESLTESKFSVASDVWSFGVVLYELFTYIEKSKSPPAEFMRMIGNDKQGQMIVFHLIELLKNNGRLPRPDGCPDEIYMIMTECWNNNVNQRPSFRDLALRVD

Row | SMILES | IC50 (JAK2 kinase domain) | IC50 (Lyn full length) | IC50 [1]
1 | Cc1ccc(Cl)cc1-c1[nH]c(-c2ccnc(N)n2)c(C#Cc2ccc(N)cc2)c1C(N)=O [compound 76, 4-[(4-Aminophenyl)ethynyl]-5-(2-amino-pyrimidin-4-yl)-2-(5-chloro-2-methyl-phenyl)-1H-pyrrole-3-carboxamide] | 3 nM | 8 nM | 500 nM
2 | Cc1ccc(Cl)cc1-c1[nH]c(-c2ccnc(N)n2)c(C#Cc2cccc(NCCN)c2)c1C(N)=O [compound 82, 4-({3-[(2-Aminoethyl)amino]phenyl}ethynyl)-5-(2-aminopyrimidin-4-yl)-2-(5-chloro-2-methylphenyl)-1H-pyrrole-3-carboxamide] | 7 nM | 11 nM | 290 nM
3 | Cc1ccc(Cl)cc1-c1[nH]c(-c2ccnc(N)n2)c(C#Cc2ccccc2NCCN(C)C)c1C(N)=O [compound 87, 5-(2-Aminopyrimidin-4-yl)-2-(5-chloro-2-methylphenyl)-4-[(2-{[2-(dimethylamino)ethyl]amino}phenyl)ethynyl]-1H-pyrrole-3-carboxamide] | 13 nM | 24 nM | 290 nM
4 | Cc1ccc(Cl)cc1-c1[nH]c(-c2ccnc(N)n2)c(C#Cc2cccc(OC3CCN(C)CC3)c2)c1C(N)=O [compound 91, 5-(2-Aminopyrimidin-4-yl)-2-(5-chloro-2-methylphenyl)-4-({3-[(1-methylpiperidin-4-yl)oxy]phenyl}ethynyl)-1H-pyrrole-3-carboxamide] | 5 nM | 114 nM | 260 nM
5 | Cc1ccc(Cl)cc1-c1[nH]c(-c2ccnc(N)n2)c(C#Cc2ccc(OC3CCN(C)CC3)cc2)c1C(N)=O [compound 92, 5-(2-Aminopyrimidin-4-yl)-2-(5-chloro-2-methylphenyl)-4-({4-[(1-methylpiperidin-4-yl)oxy]phenyl}ethynyl)-1H-pyrrole-3-carboxamide] | 5 nM | 39 nM | 220 nM
6 | Cc1ccc(Cl)cc1-c1[nH]c(-c2ccnc(N)n2)c(C#Cc2ccccc2NC2CCN(C)CC2)c1C(N)=O [compound 94, 5-(2-Aminopyrimidin-4-yl)-2-(5-chloro-2-methylphenyl)-4-({2-[(1-methylpiperidin-4-yl)amino]phenyl}ethynyl)-1H-pyrrole-3-carboxamide] | 32 nM | 661 nM | 290 nM
7 | Cc1ccc(Cl)cc1-c1[nH]c(-c2ccnc(N)n2)c(C#Cc2ccc(N3CCC(N(C)C)CC3)cc2)c1C(N)=O [compound 96, 5-(2-Aminopyrimidin-4-yl)-2-(5-chloro-2-methylphenyl)-4-({4-[4-(dimethylamino)piperidin-1-yl]phenyl}ethynyl)-1H-pyrrole-3-carboxamide] | 4 nM | 93 nM | 210 nM
8 | Cc1ccc(Cl)cc1-c1[nH]c(-c2ccnc(N)n2)c(C#Cc2ccc(N3CCC(N4CCCCC4)CC3)cc2)c1C(N)=O [compound 97, 5-(2-Aminopyrimidin-4-yl)-4-{[4-(1,4′-bipiperidin-1′-yl)phenyl]ethynyl}-2-(5-chloro-2-methylphenyl)-1H-pyrrole-3-carboxamide] | 12 nM | 293 nM | 740 nM
9 | Cc1ccc(Cl)cc1-c1[nH]c(-c2ccnc(N)n2)c(C#Cc2ccc(N3CCC(N4CCCC4)CC3)cc2)c1C(N)=O [compound 98, 5-(2-Aminopyrimidin-4-yl)-2-(5-chloro-2-methylphenyl)-4-({4-[4-(pyrrolidin-1-yl)piperidin-1-yl]phenyl}ethynyl)-1H-pyrrole-3-carboxamide] | 36 nM | 208 nM | 1640 nM
10 | CCc1ccc(Cl)cc1-c1[nH]c(-c2ccnc(N)n2)c(C#Cc2ccccc2NCCN(C)C)c1C(N)=O [compound 101, 5-(2-Aminopyrimidin-4-yl)-2-(5-chloro-2-ethylphenyl)-4-[(2-{[2-(dimethylamino)ethyl]amino}phenyl)ethynyl]-1H-pyrrole-3-carboxamide] | 5 nM | 25 nM | 200 nM

Other lines, results leading:

Row | IC50 (JAK2 kinase domain) | IC50 (Lyn full length) | IC50 [1] | SMILES
11 | 6 nM | 3 nM | 540 nM | Cc1ccc(Cl)cc1-c1[nH]c(-c2ccnc(N)n2)c(C#Cc2cccc(CN3CCN(C)CC3)c2)c1C(N)=O [compound 81, 5-(2-Aminopyrimidin-4-yl)-2-(5-chloro-2-methylphenyl)-4-({3-[(4-methylpiperazin-1-yl)methyl]phenyl}ethynyl)-1H-pyrrole-3-carboxamide]
12 | 8 nM | 9 nM | 510 nM | Cc1ccc(Cl)cc1-c1[nH]c(-c2ccnc(N)n2)c(C#Cc2ccc(N3CCN(C)CC3)cc2)c1C(N)=O [compound 83, 5-(2-Aminopyrimidin-4-yl)-2-(5-chloro-2-methylphenyl)-4-{[4-(4-methylpiperazin-1-yl)phenyl]ethynyl}-1H-pyrrole-3-carboxamide]
13 | 1 nM | 1 nM | 210 nM | COc1ccc(N2CCN(C)CC2)cc1C#Cc1c(-c2ccnc(N)n2)[nH]c(-c2cc(Cl)ccc2C)c1C(N)=O [compound 86, 5-(2-Aminopyrimidin-4-yl)-2-(5-chloro-2-methylphenyl)-4-{[2-methoxy-5-(4-methylpiperazin-1-yl)phenyl]ethynyl}-1H-pyrrole-3-carboxamide]
14 | 6 nM | 4 nM | 260 nM | COc1cc(N2CCN(C)CC2)ccc1C#Cc1c(-c2ccnc(N)n2)[nH]c(-c2cc(Cl)ccc2C)c1C(N)=O [compound 89, 5-(2-Aminopyrimidin-4-yl)-2-(5-chloro-2-methylphenyl)-4-{[2-methoxy-4-(4-methylpiperazin-1-yl)phenyl]ethynyl}-1H-pyrrole-3-carboxamide]
15 | 3 nM | 5 nM | 300 nM | Cc1ccc(Cl)cc1-c1[nH]c(-c2ccnc(N)n2)c(C#Cc2cccc(N3CCN(C)CC3)c2)c1C(N)=O [compound 90, 5-(2-Aminopyrimidin-4-yl)-2-(5-chloro-2-methylphenyl)-4-{[3-(4-methylpiperazin-1-yl)phenyl]ethynyl}-1H-pyrrole-3-carboxamide carboxamide]
16 | 5 nM | 93 nM | 230 nM | Cc1ccc(Cl)cc1-c1[nH]c(-c2ccnc(N)n2)c(C#Cc2cc(N3CCN(C)CC3)ccc2F)c1C(N)=O [compound 93, 5-(2-Aminopyrimidin-4-yl)-2-(5-chloro-2-methylphenyl)-4-{[2-fluoro-5-(4-methylpiperazin-1-yl)phenyl]ethynyl}-1H-pyrrole-3-carboxamide]
17 | 8 nM | 281 nM | 400 nM | Cc1ccc(Cl)cc1-c1[nH]c(-c2ccnc(N)n2)c(C#Cc2ccc(N3CCC(N4CCN(C)CC4)CC3)cc2)c1C(N)=O [compound 95, 5-(2-Aminopyrimidin-4-yl)-2-(5-chloro-2-methylphenyl)-4-({4-[4-(4-methylpiperazin-1-yl)piperidin-1-yl]phenyl}ethynyl)-1H-pyrrole-3-carboxamide]
18 | 2 nM | 26 nM | 410 nM | Cc1ccc(Cl)cc1-c1[nH]c(-c2ccnc(N)n2)c(C#Cc2ccc(N3CCNCC3)cc2)c1C(N)=O [compound 99, 5-(2-Aminopyrimidin-4-yl)-2-(5-chloro-2-methylphenyl)-4-{[4-(piperazin-1-yl)phenyl]ethynyl}-1H-pyrrole-3-carboxamide]
